{"source": "paper PMC4406241", "about": "(Current eye research, 2009)", "target": "T1, Breast Cancer Resistance Protein (BCRP) (Homo sapiens, UniProt Q9UNQ0)", "T1 sequence (Q9UNQ0 1-655)": "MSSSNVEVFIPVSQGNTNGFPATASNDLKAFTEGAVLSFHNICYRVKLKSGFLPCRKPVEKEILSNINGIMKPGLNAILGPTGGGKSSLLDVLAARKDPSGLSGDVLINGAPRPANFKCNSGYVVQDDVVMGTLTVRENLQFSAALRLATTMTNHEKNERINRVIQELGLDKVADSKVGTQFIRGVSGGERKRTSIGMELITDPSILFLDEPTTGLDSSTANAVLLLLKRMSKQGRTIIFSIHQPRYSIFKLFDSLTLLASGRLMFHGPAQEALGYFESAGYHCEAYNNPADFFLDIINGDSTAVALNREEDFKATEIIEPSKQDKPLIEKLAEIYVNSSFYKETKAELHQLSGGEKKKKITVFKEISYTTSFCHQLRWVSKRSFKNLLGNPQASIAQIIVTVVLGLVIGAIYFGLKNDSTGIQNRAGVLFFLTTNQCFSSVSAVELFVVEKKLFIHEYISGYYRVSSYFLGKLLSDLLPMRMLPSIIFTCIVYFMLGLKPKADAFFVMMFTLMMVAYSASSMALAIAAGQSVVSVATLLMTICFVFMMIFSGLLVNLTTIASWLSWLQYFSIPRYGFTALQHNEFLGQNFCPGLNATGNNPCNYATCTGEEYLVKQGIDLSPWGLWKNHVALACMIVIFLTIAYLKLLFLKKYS", "assay": "inhibition of [3H]-MTX efflux from MDCKII-BCRP transfected cells and SV40-HCEC", "assay_type": "cell-based", "data": [{"smiles": "COc1ccc2c3c([nH]c2c1)[C@H](C=C(C)C)N1C(=O)[C@@H]2CCCN2C(=O)[C@@H]1C3", "note": "[FTC, Fumetremorgin C]", "values": [{"measurement": "IC50", "result": "~10", "unit": "µM"}]}]}
